{"source": "patent US10278971B2", "about": "“Fluorocyclopentenylcytosine methods of use” (Rexahn Pharmaceuticals, Inc., priority 2015, dated 2019)", "key": {"[1]": {"system": "SW1573 spheroids", "assay": "Spheroid assay, radiosensitizing effect", "format": "cell-based, human", "details": "SW1573 spheres", "description": "(§1) The NSCLC cell lines A549 and SW1573 were plated in low attachment 24 well plates (Corning Incorporated, Corning, N.Y.) at a density of 100,000 cells/well and allowed to form spheroids. After three days, single spheroids were transferred to new 24 well low attachment plates (one spheroid/well). Immediately after transfer treatment was started, for A549 and SW1573 cells 1 μM RX-3117 was combined with fractionated 2 Gy irradiation (5 days single 2 Gy dose). Pictures were taken on day 0 (before irradiation) and after 3, 6, 9, and 15 days using a phase contrast microscope (LeicaDMI300B Universal Grab 6.3 software, Digital Cell Imaging Labs). The measurements were taken by ImageJ software (ImageJ 1.45s, Wayne Rasband, National Institutes of Health, Bethesda, Md.) for spheroid volume calculation (V=4/3π(D/2)^3) as described earlier by Galvani et al. (Galvani E, Giovannetti E, Saccani F, Cavazzoni A, Leon L G, Dekker H, Alfieri R, Carmi C, Mor M, Ardizzoni A, Petronini P G and Peters G J: Molecular mechanisms underlying the antitumor activity of 3-aminopropanamide irreversible inhibitors of the epidermal growth factor receptor in non-small cell lung cancer. Neoplasia 15: 61-72, 2013)."}, "[2]": {"system": "A549 spheroids", "assay": "Spheroid assay, radiosensitizing effect", "format": "cell-based, human", "description": "as §1"}, "[3]": {"target": "cytidine deaminase (CDA) (Homo sapiens, UniProt P32320)", "sequence (P32320 whole entry, species assumed)": "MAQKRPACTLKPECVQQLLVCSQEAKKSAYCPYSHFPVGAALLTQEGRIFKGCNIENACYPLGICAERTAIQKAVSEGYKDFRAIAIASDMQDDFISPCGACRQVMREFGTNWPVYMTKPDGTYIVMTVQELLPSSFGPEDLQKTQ", "details": "cited from earlier work"}, "[4]": {"system": "SW1573", "assay": "Cell cycle distribution and apoptosis by flow cytometry (PI, Annexin V)", "format": "cell-based, human", "description": "(§2) The effect of RX-3117 on cell cycle regulation and cell death in human non-small cell lung cancer (NSCLC) cell lines A549 (adenocarcinoma), SW1573 (alveolar carcinoma) and SW1573/G- (SW1573 cell line resistant to gemcitabine) and H460 (large cell carcinoma) was assessed. The A549 and H460 cell lines were obtained from American Type Culture Collection (Manassas, Va., USA). The SW1573 cell line, obtained from Dr. Johan van Rijn (see Keiser et al., Cancer Research, 49:2988-2993 (1989)), also served as the parental cell line for SW1573/G-. A549, SW1573, and SW1573/G- and H460 were kept in exponential growth in T25 flasks (Greiner Bio-One GmbH, Frickenhausen, Germany) and cultured in Dulbecco's minimal essential medium (DMEM) or RPMI 1640 (A549) supplemented with 10% heat-inactivated fetal bovine serum (FBS) 1% streptomycin and penicillin 20 mM HEPES and maintained in 37° C. water saturated atmospheres of 5% CO2. For the cell cycle distribution, 1.5×10^5 cells were seeded in a T25 flask (Greiner Bio-One GmbH) and cultured for 72 hours after which 1 μM of RX-3117 was added and incubated for 24 hours. The cells were then harvested. After the treatment, the medium was collected in a 15 ml tube (Greiner Bio-One GmbH). The cells were washed with ice cold PBS and trypsinized (Lonza) at 37° C. The collected medium was used to inactivate trypsin of the corresponding sample and again collected in the 15 ml tube. The cells were centrifuged with the standard centrifuge program, 5 minutes at 4° C. and […]. The medium was removed, pellet washed with 1 ml PBS/0.01% BSA and centrifuged. After removal of the supernatant, the cells were fixed with 1 ml 70% ethanol and incubated at −20° C. for at least 24 hours. Subsequently, the cells were centrifuged, washed with 1 ml PBS/0.1% BSA and transferred to a FALCON FACS tube (BD, Franklin Lakes, N.J., USA). The cells were centrifuged, and the supernatant was removed followed by the addition of 0.5 μg propidium iodide (PI) (Sigma, St. Louis, Mo., USA), 0.1% trisodium citrate (Riedel-de Haen, Sigma-Aldrich Laborchemikalien GmbH, St. Louis, Mo., USA), 0.1% Triton X-100™ (Merck) and 0.1 mg/ml RNase (Sigma) (PI solution) to the samples. Subsequently, for at least 15 minutes, the cells were incubated on ice with the PI solution to stain the DNA before starting the analysis. The cells stained with the PI solution were analyzed by FACSCalibur™ (BD Biosciences, Mount View, Calif., USA). Data was analyzed with CellQuest™ Pro software.\n(§3) Cell cycle distribution and apoptosis were analyzed by plating cells in flat bottom 6 well plates (Greiner Bio-One GmbH, Frickenhausen, Germany) at the density of 5,000 cells and allowed to attach for 24 h. Thereafter cytotoxic concentrations of 5×IC50 were added. The exposure time was 24 h and 48 h and for comparison the control group was included. At each time point total amount of adherent and floating cells were harvested in round-bottom FALCON tubes (BD, Franklin Lakes, N.J., USA). After centrifugation, cell pellets were resuspended in 1.0 ml propidium iodide (PI) solution (50 ug/ml PI, 0.1% sodium citrate 0.1% Triton X-100, 0.1 mg/ml ribonuclease A) or 10 ul Annexin V (cat#31490014, Immunotools) and left on ice for 30 minutes. Subsequently, samples were analyzed using FACSCalibur (BD Biosciences, Mount View, Calif., USA). For data analysis CELLQuest™ software was carried out, using gates on DNA histograms to estimate the amount of cells in sub-G1 phase (apoptotic cells)."}, "[5]": {"system": "A549", "assay": "Cell cycle distribution and apoptosis by flow cytometry (PI, Annexin V)", "format": "cell-based, human", "description": "as §2, §3"}}}
{"smiles": "Nc1ccn([C@@H]2C(F)=C(CO)[C@@H](O)[C@H]2O)c(=O)n1", "note": "[RX-3117, 4-amino-1-((1S,4R,5S)-2-fluoro-4,5-dihydroxy-3-hydroxymethyl-cyclopent-2-enyl)-1H-pyrimidin-2-one]", "values": [{"measurement": "spheroid volume, combination with radiotherapy", "setting": "[1]; 1 μM plus 2 Gy 5 days", "result": "the effect was enhanced with the combination"}, {"measurement": "spheroid volume, RX-3117 alone", "setting": "[1]; 1 μM, 15 days", "result": "highly affected"}, {"measurement": "spheroid volume growth, combination with irradiation", "setting": "[2]; A549, 1 μM plus 5 days irradiation with 2 Gy", "result": "enhanced the effect"}, {"measurement": "spheroid volume growth, RX-3117 alone", "setting": "[2]; A549, 1 μM, 15 days", "result": "only a small effect"}, {"measurement": "substrate for cytidine deaminase (CDA)", "setting": "[3]; Peters et al. 2013", "result": "poor substrate"}, {"measurement": "rate of deamination", "setting": "[3]; compared with gemcitabine", "result": "much slower than gemcitabine"}, {"measurement": "accumulation of cells in the G1 phase", "setting": "[4]; SW1573, 1 μM, 24 hour exposure", "result": "induced accumulation"}, {"measurement": "increased accumulation of cells in the G1 phase", "setting": "[4]; SW1573, 1 μM, 24 hour exposure", "result": "20-40%"}, {"measurement": "apoptosis, Annexin V stained cells", "setting": "[4]; SW1573, 10 μM, 24, 48, 72 and 96 hour exposure", "result": "induced apoptosis"}, {"measurement": "apoptosis, PI stained cells in the sub-G1 phase", "setting": "[4]; SW1573, 5×IC50, 24 and 48 hour exposure", "result": "induced apoptosis"}, {"measurement": "accumulation of cells in the S-phase", "setting": "[4]; SW1573, 5×IC50, 24 and 48 hours", "result": "induced the accumulation"}, {"measurement": "cell kill", "setting": "[4]; SW1573, 24 hour exposure", "result": "No cell kill"}, {"measurement": "cell kill", "setting": "[4]; SW1573, 48 hour exposure", "result": 15, "unit": "%"}, {"measurement": "accumulation of cells in the G1 phase", "setting": "[5]; A549, 1 μM, 24 hour exposure", "result": "induced accumulation"}, {"measurement": "increased accumulation of cells in the G1 phase", "setting": "[5]; A549, 1 μM, 24 hour exposure", "result": "20-40%"}, {"measurement": "apoptosis, Annexin V stained cells", "setting": "[5]; A549, 5 μM, 24, 48, 72 and 96 hour exposure", "result": "induced apoptosis"}, {"measurement": "apoptosis, PI stained cells in the sub-G1 phase", "setting": "[5]; A549, 5×IC50, 24 and 48 hour exposure", "result": "induced apoptosis"}, {"measurement": "accumulation of cells in the S-phase", "setting": "[5]; A549, 5×IC50, 24 and 48 hours", "result": "induced the accumulation"}, {"measurement": "cell kill", "setting": "[5]; A549, 24 hour exposure", "result": "No cell kill"}, {"measurement": "accumulation in S phase", "setting": "[5]; A549, 48 hour exposure", "result": 45, "unit": "%"}, {"measurement": "cell kill", "setting": "[5]; A549, 48 hour exposure", "result": 8, "unit": "%"}]}
